Patent publication US12350306B2, “Modifying taste and sensory irritation of smokeless tobacco and non-tobacco products” (Altria Client Services LLC, priority 2013, dated 2025)

Legend:
[1] = biological target: TRPV1 channel (Homo sapiens, UniProt Q8NER1); details: cited from earlier work
[2] = experimental animal models; cited from earlier work
[3] = Perceived bitterness of caffeinated water formulations; type: in vivo; details: caffeinated water formulation
Experimental: Liquid formulations were prepared by combining caffeinated water or commercially available grapefruit juice with Cremophor® alone, citric acid alone or the combination of Cremophor® and citric acid. […] Because grapefruit juice naturally contains citric acid, citric acid was not added to the grapefruit juice formulations.

Chain of TRPV1 channel (Q8NER1 whole entry): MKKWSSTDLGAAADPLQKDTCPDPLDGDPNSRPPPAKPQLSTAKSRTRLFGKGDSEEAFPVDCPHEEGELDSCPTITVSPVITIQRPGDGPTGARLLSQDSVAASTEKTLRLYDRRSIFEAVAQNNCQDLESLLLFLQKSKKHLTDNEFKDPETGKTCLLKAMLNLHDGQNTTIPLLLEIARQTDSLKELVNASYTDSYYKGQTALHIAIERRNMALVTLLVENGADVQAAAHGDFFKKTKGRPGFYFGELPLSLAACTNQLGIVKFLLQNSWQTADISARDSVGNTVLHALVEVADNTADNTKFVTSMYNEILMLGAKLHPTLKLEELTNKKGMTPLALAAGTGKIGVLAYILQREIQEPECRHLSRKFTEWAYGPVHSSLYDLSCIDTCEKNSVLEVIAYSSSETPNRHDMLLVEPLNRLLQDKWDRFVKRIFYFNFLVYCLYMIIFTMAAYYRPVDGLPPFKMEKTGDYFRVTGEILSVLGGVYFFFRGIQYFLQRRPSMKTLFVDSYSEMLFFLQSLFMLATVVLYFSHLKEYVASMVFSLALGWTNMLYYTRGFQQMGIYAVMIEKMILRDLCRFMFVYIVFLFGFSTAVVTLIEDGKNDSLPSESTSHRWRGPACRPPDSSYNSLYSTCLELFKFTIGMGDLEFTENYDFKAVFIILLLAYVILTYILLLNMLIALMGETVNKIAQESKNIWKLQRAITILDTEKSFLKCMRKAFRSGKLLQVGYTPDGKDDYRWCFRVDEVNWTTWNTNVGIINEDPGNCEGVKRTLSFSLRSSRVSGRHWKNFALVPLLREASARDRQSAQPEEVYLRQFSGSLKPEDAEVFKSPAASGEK

In the case of CCCCCC[C@@H](O)C/C=C/CCCCCCCC(=O)O (stereo in doubt) [Ricinoleic acid, 12-hydroxy-9-cis-octadecenoic acid], the TRPV1 channel desensitization [1] is given as “can desensitize the TRPV1 channel” and the anti-inflammatory effects [2] is given as “anti-inflammatory effects”.
For O=C(O)CC(O)(CC(=O)O)C(=O)O [citric acid], the perceived bitterness [3] was “little noticeable effect”.
